Three molecules from patent publication US9732367B2, “Cell lines” (MEDIMMUNE LIMITED, priority 2012, dated 2017) can be followed below.

Where “and” joins values, the source holds several entries; their conditions need not be identical. Equal entries are not always repeated.

One data set relates to HEK293 c18 cells. The data set is described as follows: MTS viability assay with nnAA titration in cells transfected with pylRS and tRNA. Conditions: ALOC 5 mM to 0.08 mM, 5 days.
A further data set has as its target T1, pylRS/tRNA pair (Methanosarcina mazei, UniProt Q8PWY1).
T1 construct: expressed in transfected cells; host or cells: HEK293 clone 3H7
The data set is described as follows: GFP assay: translational testing of pyrrolysine analogs as nnAAs. In kind it is cell-based. Conditions: Formula V analogs, nnAA 2 mM, 2-3 days; for MFI: geometric mean. The text has this: An in vitro cell based assay was developed to assess the compatibility of the pylRS/tRNA pair and the pyrrolysine analogs of the present invention (nnAAs) by and the efficiency of nnAAs integration into a target protein. For this, HEK293 cells stably expressing pylRS (3H7) were transiently transfected with plasmids for the expression of tRNApyl and a reporter construct encoding GFPY40 (containing amber codon in place of tyrosine at amino acid residue number 40 (where 1 is the initiator methionine)) using standard transfection protocols. Transfected cells were incubated with nnAAs at 2 mM for 2-3 days GFP production was analyzed qualitatively by visual inspection under the microscope. The GFP fluorescence was quantified by flow cytometry using an Accuri flow cytometer and the geometric mean of the fluorescent cells determined.
This cell based assay was used to determine whether the different nnAAs were suitable substrates for the pylRS and allowed its translation into a target protein. Cells expressing the PylRS/tRNApyl pair and containing a vector encoding the GFPY40 reporter gene were incubated in the presence of the nnAAs. nnAAs that are readily utilized by the PylRS/tRNApyl pair support the translation of the nnAA into the amber site of GFP and allow read-through of the gene producing full length GFP (fluorescent protein). The fluorescence intensity of the cells depends on the efficiency of nnAA incorporation. Thus, nnAAs that are poorly utilized produce weakly fluorescent or non-fluorescing cells. […] Furthermore, the relative expression levels in each sample was compared to those generated by substrates known to be efficiently utilized by pylRS.

For data set [1], the system named is CHO cells stably expressing pylRS and tRNApyl and an IgG directed against her2/neu containing an amber codon. The experiment in a line: Growth and viability of pylRS/tRNApyl cell line treated with lys azide and dnnAA. The class given is cell-based. Conditions: 2 mM dnnAA with 0.5 mM lys-azide. The text has this:
To examine whether the dnnAAs of the invention could function to improve the viability of cells containing pylRS and tRNApyl we monitored the growth and viability of a cell line, stably expressing pylRS and tRNApyl. For this assay CHO cells stably expressing pylRS and tRNApyl and an IgG directed against her2/neu containing an amber codon in the heavy chain, shown to effectively incorporate nnAA into the expressed IgG thus producing an antibody containing a nnAA, were used for this experiment. Despite a high expression level of pylRS/tRNApyl pair, this cell line has very robust cell growth characteristics when grown in medium lacking nnAA. The presence of a highly expressed target containing an amber codon likely has a protective effect on the cells by supplying them with high levels of amber codons that absorb the amber suppression activity and protects the cells from the effects of background amber suppression at essential genes. However, upon addition of the nnAA (lys-azide) to the growth medium, and activation of the amber suppression machinery, a decrease in cell growth rate is observed. […] To determine whether a dnnAA can rescue this effect, cells cultured in serum free medium were grown to a cell density of 0.5×10^6 cells/mL and subsequently treated with 0.5 mM lys azide alone or in combination with 2 Mm dnnAA. Cell viability and cell numbers were monitored daily over seven days. Cells treated with lys azide alone reached a cell density just below 1×10^6 cells/mL on day 3 after nnAA addition and remained at this density for the remainder of the assay (seven days) (FIG. 15A) The lack of growth was not likely due to loss of viability as the culture retained high viability throughout the experiment (˜70% viable cells) (FIG. 15B) Cultures treated with 2 mM Compound of formula VIIB.4, or 2 mM Formula VIIB.1 in combination with 0.5 mM lys-azide supported continued growth of the culture that reached over 1.5×10^6 cells/mL and retained a cell viability of 90%.

In data set [2] the test system is background amber suppression. The experiment in a line: Background amber suppression (GFPY40 reporter, pylRS/tRNApyl, dnnAA without nnAA). The class given is cell-based. The procedure:
The competitive assay for dnnAA inhibition in the presence of a high affinity substrate identified dnnAAs that compete for binding with to the pylRS and thus are specific inhibitors of the pylRS/tRNA. However, the decoy nnAA is intended to reduce the levels of background amber suppression in the absence of nnAA. To determine if background amber suppression levels could be reduced, we incubated cells containing the GFPY40 reporter construct and the pylRS/tRNApyl pair in medium containing one of the dnnAAs. To do this, HEK293 cells stably expressing pylRS were transiently transfected with a tRNA expression construct and the GFPY40 reporter cassette. After 3 days of incubation, cells were assayed for expression of GFP by flow cytometry and geometric mean fluorescence intensity of the samples determined. We have previously observed that cells containing the full complement of the pylRS/tRNA amber suppression system show detectable expression of the GFP reporter construct that is above what is observed in cells lacking the amber suppression system. […] To identify dnnAAs capable of reducing background amber suppression levels the transfected cells were incubated with each of the dnnAAs at 0.5 mM, 1 mM and 2 mM and GFP levels measured by flow cytometry.
The decrease in background amber suppression dependent GFP expression was dose dependent and improved as the dnnAA concentration increased. […] This feature is an attractive characteristic for platform development as it enables the repression of background amber suppression but the system can be activated upon addition of a strong pylRS substrate such as lys-azide. […] Their efficacy was quantified by the reduction in GFP expression relative to a control sample (not exposed to dnnAA) and the data are summarized in Table 1.

For data set [3], the system named is platform cell line. The data set is described as follows: Platform cell line grown with or without dnnAA: cell numbers. The class given is cell-based. The procedure:
(§1) To do this a platform cell line, selected for high activity of the amber suppression machinery was grown in the presence or absence of dnnAA for several passages and subsequently seeded into 96-well plates at ten cells per well and grown in the presence or absence of dnnAA (Formula VIIB.2). Each plate was incubated for several days and cells harvested, pooled and counted. […] This two fold increase in cell numbers may be due to the protective effects of the dnnAA. To examine the activity of the cells grown under these conditions, 0.5×10^6 cells pooled from each plate were seeded into a 6-well plate and transfected with a GFPY40 reporter construct in the absence of dnnAA and with lys-azide. After 24 hours the fluorescence intensity of the cells in each sample was analysed by flow cytometry. The data were gated to include single cells and plotted to display the intensity of each event (scatter plot, FIG. 16). The number of events falling within the top 10% of the GFP intensity spectrum were determined for each sample (Table 2). […] Cells from both groups were also transfected with a construct encoding wild type GFP. The same analyses were performed on this group.

The test system of data set [4] is platform cell line. The experiment in a line: GFPY40 reporter activity of platform cells grown with or without dnnAA (flow cytometry). In kind it is cell-based. The procedure: as §1
(In flow cytometry, cells or beads pass a laser one at a time.)

Another data set deals with T2, pylRS (Methanosarcina mazei, UniProt Q8PWY1).
T2 construct: expressed in transfected cells
T2 sequence (Q8PWY1 whole entry): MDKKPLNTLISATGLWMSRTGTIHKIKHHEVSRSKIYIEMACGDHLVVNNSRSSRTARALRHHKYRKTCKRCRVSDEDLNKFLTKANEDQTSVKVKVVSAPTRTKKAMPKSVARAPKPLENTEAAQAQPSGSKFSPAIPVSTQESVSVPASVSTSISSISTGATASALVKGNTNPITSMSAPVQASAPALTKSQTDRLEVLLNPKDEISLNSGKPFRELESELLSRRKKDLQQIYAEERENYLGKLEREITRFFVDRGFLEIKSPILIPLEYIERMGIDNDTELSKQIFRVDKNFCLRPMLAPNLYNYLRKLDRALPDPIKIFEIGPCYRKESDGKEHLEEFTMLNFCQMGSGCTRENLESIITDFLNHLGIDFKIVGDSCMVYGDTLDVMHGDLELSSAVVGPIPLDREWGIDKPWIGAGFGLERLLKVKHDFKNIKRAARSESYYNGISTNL
The data set is described as follows: In vitro GFPY40 functional assay: dnnAA competition with lys azide in HEK293 cells stably expressing pylRS. The class given is cell-based. Particulars: lys azide with 0.5 mM, 1 mM and 2 mM dnnAA. The text has this:
Effective dnnAAs were identified by their ability to compete with a high affinity substrate for pylRS (lys-azide) in an in vitro assay, for their ability to reduce background amber suppression levels observed with a reporter protein, and for their ability to improve the viability and function of cells previously selected for high pylRS/tRNA activity.
To identify analogues that could effectively compete for pylRS binding with lys-azide, dnnAAs were first tested for function in an in vitro functional assay based on the ability of cells expressing WT pylRS and tRNApyl to introduce a nnAA at a target site in the reporter protein GFPY40. This reporter contains an amber codon in its open reading frame that, in the absence of amber suppression, generates a truncated protein that is not fluorescent. In the event of amber suppression, a full length GFP protein is generated that is detectable by fluorescence detection methods. In this assay, HEK293 cells stably expressing pylRS, were transiently transfected with a tRNA expression construct and the GFPY40 reporter cassette. Cells were then incubated with 0.5 mM lys azide in the presence or absence of different concentrations of dnnAA ranging from 0.5 mM to 2 mM. GFP fluorescence levels were then quantified by flow cytometry. For this assay the proportion of fluorescent cells in each condition was determined and plotted. As the dnnAAs are expected to compete with the nnAA (lys-azide) for pylRS/tRNA binding, an effective dnnAA should reduce or prevent the expression of full length GFP (as described above dnnAAs can be delivered by the tRNA to the amber site, but cannot propagate protein synthesis).
A similar in vitro assay was used to gauge the effectiveness of the dnnAAs of Formula VIIB listed in Table 1 where a description of the amino acids tested and a summary of the results are shown For this assay the geometric mean fluorescence intensity of each sample was determined by flow cytometry and plotted. For each dnnAA tested control cells transfected with wild type GFP were measured as a positive control. In addition cells transfected with the reporter GFPY40 and exposed to 0.5 mM lys azide or 2 mM lys azide were used to determine maximal GFP expression levels in the absence of an inhibitor. In each case robust GFP expression levels were observed. To test whether any of the dnnAA could reduce the efficacy of GFP expression, cells were incubated in the presence of 0.5 mM, 1 mM and 2 mM […]. […] Thus, dnnAAs of the present invention can compete with the lys-azide nnAA for binding to the pylRS and interfere with the physiological mechanism of nnAA introduction. Cells transfected with the pylRS/tRNA pair and the GFPY40 reporter construct but not exposed to either lys-azide or a dnnAA were used to determine levels of background amber suppression and used as a negative control. In each case low GFP expression levels were observed.

Another data set concerns db/db mice. The data set is described as follows: Fed glucose blood levels in db/db mice. Conditions: 0.25 mg/Kg daily subcutaneously, day 3. In kind it is in vivo, mouse. The procedure: To assess the potency of the PEGylated FGF21 constructs obese, db/db mice were treated daily with 0.25 mg/Kg FGF21 or 20K PEG-FGF21 and glucose levels measured in fed mice after three treatments using a handheld glucose monitor, (FIG. 7B).
The homozygous db/db mouse (B6.BKS(D)-Leprdb/j, Jackson labs) is a well characterized animal model for diabetes and becomes obese after 3-4 weeks of age. The animals also display elevated plasma insulin, blood sugar, and delayed wound healing. In this study, 7-8 week old, male db/db mice were fed Lab Diet 5053 Rodent Diet 20 ad libitum. Mice were acclimatized for seven days and subsequently administered PEGylated FGF21, unmodified FGF21 and vehicle (PBS) subcutaneously daily for […].
Each mouse was administered 0.25 mg/Kg of PEG-FGF21 or unmodified FGF21 daily for three days. Fed glucose blood levels were determined by tail clip bleeding one hour after compound administration on day 3, and glucose levels measured by a handheld glucose meter (Bayer).

[5] abbreviates: Tracer (wild type GFP) transfected, sample 6.

T1 sequence (Q8PWY1 whole entry): as above
Procedure for HEK293 c18 cells: Finally, to determine whether amber suppression led to cytostatic effects, 1000 HEK293 c18 cells plates in a 96 well plate and transiently transfected with pCEP4-pylRS and pOriP-9×tRNA constructs. Cells were grown in DMEM-C medium containing a titration of nnAA (ALOC) starting with 5 mM to 0.08 mM. Cell viability was assayed at the time of the transfection, and after 5 days growth using an MTS colorimetric assays (FIG. 4D).

Consider `C=CCOC(=O)NCCCC[C@H](N)C(=O)O` [Formula V.3, (2S)-2-amino-6-{[(prop-2-en-1-yloxy)carbonyl]amino}hexanoic acid], for which, in the data set on HEK293 c18 cells, the “effect on cell viability/growth” value was “cytotstatic effect”. In addition, on pylRS/tRNA pair, the “Positive GFP” value is “Yes” and the MFI was 2,250,000. The same molecule gave an MFI on pylRS/tRNA pair (listed as V.3) of 2250000.
On to `C=CCOC(=O)NCCCCC(=O)O` [Formula VIIB.2, 5-{[(prop-2-en-1-yloxy)carbonyl]amino}pentanoic acid], for which the “prevention of cytostatic effects of amber suppression activation” value in data set [1] is “prevent the cytostatic effects”. Also, in data set [1] (seven days), the cell density result is recorded as “over 3 ×10^6 cells/mL” and the cell viability entry is “over 90%”. For the same molecule, in data set [2] (dnnAA at 0.5 mM, 1 mM and 2 mM), the “reduction in background amber suppression levels” value is given as “reduction in the background amber suppression levels”. In data set [2] (reduction in GFP expression relative to control not exposed to dnnAA, 3 days), the “% Reduction at 2 mM Decoy” value was found to be 57.7%. Besides, in the data set on platform cell line [3], the “increase in cell numbers vs cultures without dnnAA” value was “two fold”. The cell numbers in the data set on platform cell line [3] (96-well plates, ten cells per well, grown in dnnAA) was 3.0 ×10^6 cells/mL and 3.7 ×10^6 cells/mL. Besides, the “Top 300 (GM)” value in the data set with platform cell line [4] (GFPY40 reporter with lys-azide, 24 hours, cells previously grown with decoy) is 1142 and 1149 and 1135. The “# events in top gate” value with platform cell line [4] (GFPY40 reporter, top 10% of GFP intensity, cells previously grown with decoy) is 175 and 179 and 171. For the same molecule, in the data set on platform cell line [4] (setting [5]), the “# events in top gate” value was determined as 59 and the “Top 300 (GM)” value is on record as 529. The “reduction of GFP expression relative to samples lacking dnnAA (geometric mean fluorescence intensity)” value on pylRS is listed as “relative reduction in GFP expression was much lower”.

B1: PEG-FGF21 (conjugate, UniProt Q9NSA1 29-209, looked up)
Fibroblast growth factor 21: HPIPDSSPLLQFGGQVRQRYLYTDDAQQTEAHLEIREDGTVGGAADQSPESLLQLKALKPGVIQILGVKTSRFLCQRPDGALYGSLHFDPEACSFRELLLEDGYNVYQSEAHGLPLHLPGNKSPHRDPAPRGPARFLPLPGLPPALPEPPGILAPQPPDVGSSDPLSMVGPSQGRSPSYAS
modifications: PEGylated
Regarding B1, in the data set on db/db mice, the “glucose level maintenance vs placebo” value is given as “improved glucose level maintenance as compared to placebo controls” and the “potency on fed glucose blood levels” value was “same potency of wild type FGF21”.
